Patent publication US20250011303A1, “SMALL MOLECULE MODULATORS OF IL-17A, METHODS OF MAKING AND METHODS OF USING THEREOF” (ASCLETIS BIOSCIENCE CO., LTD, priority 2023, published 2025)
Like-named read-outs stand apart in the source and are kept apart here.

Test system: HEK-Blue IL-17 cells with rhIL-17A/A
Test: HEK-Blue IL-17 cell assay (SEAP reporter, rhIL-17A/A stimulation)
Type: cell-based, human
Details: 20 hours incubation, absorbance at 405 nm, read-out: IC50 in HEK-Bule cell Assay
Description: • 1. The test Compounds were 3-fold serial diluted from 10 mM for 10 doses in DMSO. • 2. Prepare Reference Compounds (IL-17A-Inhibitor-1) were 3-fold serial diluted from 1 mM for 10 doses in DMSO. • 3. Prepare 1000× Positive control (1 mM IL-17A-Inhibitor-1) and 1000× vehicle control (100% DMSO).
• a) Cells were cultured as the HEK-Blue™ IL-17 technical data sheet recommended. HEK-Blue IL-17 cells were assayed in the exponential growth phase. • b) Aspirate growth medium and rinse cells twice with PBS to remove phenol red. • c) Resuspend cells in test medium to a proper concentration. • d) Only cells with viability greater than 90% were used for assays. • e) Transfer 25 nl of compound dilutions into 384-well assay plates using Echo655; • f) Seed 25 ul of HEK-Blue IL-17 cells at 8,000 cells/well into 384-well plate with rhIL-17A/A. • g) Cells were incubated for 20 hours at 37° C. under 5% CO2 atmosphere. • h) Transfer 2 ul of cells supernatant into per well of 384-well assay plates. • i) Add 20 ul of PNPP substrate. • j) Measure the Absorbance at 405 nm on Envision 2105 plate reader.
RLU signal (LUMcmpd) is calculated for each well.
% Inhibition is calculated as follow: […]
Signalave_pc: The average signal for the positive controls across the plate.
Signalave_vc: The average signal for negative controls across the plate.
Calculate IC50 and Plot effect-dose curve of cmpds:
Calculate IC50 by fitting % Inhibition values and log of compound concentrations to nonlinear regression (dose response−variable slope) with Graphpad 8.0.

| SMILES | IC50 (Homo sapiens, HEK-Blue, 20 h) | IC50 |
| --- | --- | --- |
| CC(C)n1nccc1C(=O)N[C@H](C(=O)Nc1ccc2c(c1)OCC[C@H]2NC(=O)CCC(F)(F)F)C1CCCCCC1 [Compound 1] | 0.209 µM |  |
| CC(C)n1nccc1C(=O)N[C@H](C(=O)Nc1ccc2c(c1)OCC[C@H]2NS(=O)(=O)CCC(F)(F)F)C1CCCCCC1 [Compound 5] | 0.333 µM |  |
| CC(C)n1nccc1C(=O)N[C@H](C(=O)Nc1ccc2c(c1)OCC(C)(C)[C@H]2NC(=O)CCC(F)(F)F)C1CCCCCC1 [Compound 12] | 0.317 µM |  |
| CC(C)n1nccc1C(=O)N[C@H](C(=O)Nc1ccc2c(c1)OC(C)(C)C[C@H]2NC(=O)CCC(F)(F)F)C1CCCCCC1 [Compound 13] | 0.239 µM |  |
| CC(C)n1nccc1C(=O)N[C@H](C(=O)Nc1ccc2c(c1)OCC[C@H]2C(=O)N1CC(F)(F)C(F)(F)C1)C1CCCCCC1 [Compound 36] | 0.154 µM |  |
| CCC1(CC)CC(C(=O)N2CC(F)(F)C2)c2ccc(NC(=O)[C@@H](NC(=O)c3ccnn3C(C)C)C3CCCCCC3)cc2O1 (stereo partly shown) [Compound 108] | 0.102 µM |  |
| CC(C)n1nccc1C(=O)N[C@H](C(=O)Nc1ccc2c(c1)O[C@@H](C1CC(F)(F)C1)C[C@H]2C(=O)N1CC(F)(F)C1)C1CCCCCC1 [Compound 135] | 0.0189 µM |  |
| CC(C)n1nccc1C(=O)N[C@H](C(=O)Nc1ccc2c(c1)O[C@H](C1CC(F)(F)C1)C[C@H]2C(=O)N1CC(F)(F)C1)C1CCCCCC1 [Compound 136] | 0.049 µM |  |
| CC(C)n1nccc1C(=O)N[C@H](C(=O)Nc1ccc2c(c1)OC1(CCOCC1)C[C@H]2C(=O)N1CC(F)(F)C1)C1CCCCCC1 [Compound 152] | 0.00749 µM |  |
| CC(C)n1nccc1C(=O)N[C@H](C(=O)Nc1ccc2c(c1)O[C@@H](C1CC(F)(F)C1)C[C@H]2C(=O)N1CC(F)(F)C1)C(C1CC1)C1CC1 [Compound 160] | 0.0421 µM |  |
| CC(C)n1nccc1C(=O)N[C@H](C(=O)Nc1ccc2c(c1)OC1(CCOCC1)C[C@H]2C(=O)N1CC(F)(F)C1)C(C1CC1)C1CC1 [Compound 162] | 0.0357 µM |  |
| CC(C)C1CC(C(=O)N2CC(C(F)(F)F)C2)c2ccc(NC(=O)[C@@H](NC(=O)c3ccnn3C(C)C)C3CCCCCC3)cc2O1 (stereo partly shown) [Compound 164] | 0.0726 µM |  |
| CC(C)C1CC(C(=O)N2CC3(C2)CC(F)(F)C3)c2ccc(NC(=O)[C@@H](NC(=O)c3ccnn3C(C)C)C3CCCCCC3)cc2O1 (stereo partly shown) [Compound 165] | 0.127 µM |  |
| CC(C)n1nccc1C(=O)N[C@H](C(=O)Nc1ccc2c(c1)OC(C)(C)CN2C(=O)N1CC(F)(F)C1)C1CCCCCC1 [Compound 166] | 0.0545 µM |  |
| CC(C)C1CN(C(=O)N2CC(F)(F)C2)c2ccc(NC(=O)[C@@H](NC(=O)c3ccnn3C(C)C)C3CCCCCC3)cc2O1 (stereo partly shown) [Compound 167] | 0.0304 µM |  |
| CC(C)n1nccc1C(=O)N[C@H](C(=O)Nc1ccc2c(c1)OC1(CCOCC1)CN2C(=O)N1CC(F)(F)C1)C1CCCCCC1 [Compound 169] | 0.0182 µM |  |
| O=C(N[C@H](C(=O)Nc1ccc2c(c1)OC(C1CC(F)(F)C1)CC2C(=O)N1CC(C(F)(F)F)C1)C1CCCCCC1)OCC1CC1(F)F (stereo partly drawn) [Compound 189, (2,2-difluorocyclopropyl)methyl N—[(S)-cycloheptyl[(2-(3,3-difluorocyclobutyl)-4-(3-(trifluoromethyl)azetidine-1-carbonyl)-3,4-dihydro-2H-1-benzopyran-7-yl)carbamoyl]methyl]carbamate] | 0.226 µM |  |
| O=C(N[C@H](C(=O)Nc1ccc2c(c1)OC1(CCOCC1)CC2C(=O)N1CC(F)(F)C1)C1CCCCCC1)OC[C@@H]1CC1(F)F (stereo partly shown) [Compound 190] | 0.367 µM |  |
| O=C(N[C@H](C(=O)Nc1ccc2c(c1)OC(C1CC(F)(F)C1)CC2C(=O)N1CC(F)(F)C1)C1CCCCCC1)OCc1cc(C(F)F)on1 (stereo partly shown) [Compound 191] | 0.171 µM |  |
| O=C(N[C@H](C(=O)Nc1cc2c(cc1F)C(C(=O)N1CC(F)(F)C1)CC(C1CC(F)(F)C1)O2)C1CCCCCC1)OC[C@@H]1CC1(F)F (stereo partly shown) [Compound 192] | 0.267 µM |  |
| CC(C)n1nccc1C(=O)N[C@H](C(=O)Nc1cc2c(cc1F)C(C(=O)N1CC(F)(F)C1)CC(C1CC(F)(F)C1)O2)C1CCCCCC1 (stereo partly shown) [Compound 193] | 0.0397 µM |  |
| CC(C)C1CC(C(=O)N2CC(F)(F)C2)c2ccc(NC(=O)[C@@H](NC(=O)OC3CC(F)(F)C3)C3CCCCCC3)cc2O1 (stereo partly shown) [Compound 194] | 0.564 µM |  |
| CC(C)n1nccc1C(=O)N[C@H](C(=O)Nc1ccc2c(c1F)OC(C1CC(F)(F)C1)CC2C(=O)N1CC(F)(F)C1)C1CCCCCC1 (stereo partly shown) [Compound 195] | 0.131 µM |  |
| CC(C)n1nccc1C(=O)N[C@H](C(=O)Nc1ccc2c(c1)OCCC2C(=O)N1CC(F)(F)C1)C1CCCCCC1 (stereo partly shown) [Compound 197] | 0.287 µM |  |
| CC(C)n1nccc1C(=O)N[C@H](C(=O)Nc1ccc2c(c1)OCC[C@H]2C(=O)N1CC(F)(F)C1)C1CCCCCC1 [Compound 198] | 0.216 µM |  |

| SMILES | IC50 (Homo sapiens, HEK-Blue, 20 h) | IC50 |
| --- | --- | --- |
| CC(C)n1nccc1C(=O)N[C@H](C(=O)Nc1ccc2c(c1)OC(C)(C)CC2C(=O)N1CC(F)(F)C1)C1CCCCCC1 (stereo partly shown) [Compound 200] | 0.2 µM |  |
| CC(C)n1nccc1C(=O)N[C@H](C(=O)Nc1ccc2c(c1)OCCC2CC(=O)N1CC(F)(F)C(F)(F)C1)C1CCCCCC1 (stereo partly shown) [Compound 201] | 0.443 µM |  |
| CC(C)n1nccc1C(=O)N[C@H](C(=O)Nc1ccc2c(c1)CCCC2C(=O)N1CC(F)(F)C(F)(F)C1)C1CCCCCC1 (stereo partly shown) [Compound 203] | 0.141 µM |  |
| CC(C)n1nccc1C(=O)N[C@H](C(=O)Nc1ccc2c(c1)OCCC2C(=O)N1CCC(F)(F)CC1)C1CCCCCC1 (stereo partly shown) [Compound 206] | 0.369 µM |  |
| CC(C)n1nccc1C(=O)N[C@H](C(=O)Nc1ccc2c(c1)SCCC2C(=O)N1CC(F)(F)C(F)(F)C1)C1CCCCCC1 (stereo partly shown) [Compound 207] | 0.0929 µM |  |
| CC(C)n1nccc1C(=O)N[C@H](C(=O)Nc1ccc2c(c1)S(=O)(=O)CCC2C(=O)N1CC(F)(F)C(F)(F)C1)C1CCCCCC1 (stereo partly shown) [Compound 208] | 0.29 µM |  |
| CC(C)n1nccc1C(=O)N[C@H](C(=O)Nc1ccc2c(c1)OC(C1CCC1)CC2C(=O)N1CC(F)(F)C(F)(F)C1)C1CCCCCC1 (stereo partly shown) [Compound 210] | 0.251 µM |  |
| CC(C)n1nccc1C(=O)N[C@H](C(=O)Nc1ccc2c(c1)OC(C1CCCC1)CC2C(=O)N1CC(F)(F)C(F)(F)C1)C1CCCCCC1 (stereo partly shown) [Compound 211] | 0.259 µM |  |
| CC(C)n1nccc1C(=O)N[C@H](C(=O)Nc1ccc2c(c1)OC(C1CCCCC1)CC2C(=O)N1CC(F)(F)C1)C1CCCCCC1 (stereo partly shown) [Compound 212] | 0.213 µM |  |
| CC(C)n1nccc1C(=O)N[C@H](C(=O)Nc1ccc2c(c1)OC(C(C)(C)C)CC2C(=O)N1CC(F)(F)C(F)(F)C1)C1CCCCCC1 (stereo partly shown) [Compound 213] | 0.113 µM |  |
| Cc1nonc1C(=O)N[C@H](C(=O)Nc1ccc2c(c1)OC(C(C)C)CC2C(=O)N1CC(F)(F)C1)C1CCCCCC1 (stereo partly shown) [Compound 214] | 0.335 µM |  |
| CC(C)[C@H]1C[C@@H](C(=O)N2CC(F)(F)C(F)(F)C2)c2ccc(NC(=O)[C@@H](NC(=O)c3ccnn3C(C)C)C3CCCCCC3)cc2O1 [Compound 215] | 0.0407 µM |  |
| CC(C)[C@@H]1C[C@@H](C(=O)N2CC(F)(F)C(F)(F)C2)c2ccc(NC(=O)[C@@H](NC(=O)c3ccnn3C(C)C)C3CCCCCC3)cc2O1 [Compound 217] | 0.199 µM |  |
| CC(C)[C@H]1C[C@H](C(=O)N2CC(F)(F)C(F)(F)C2)c2ccc(NC(=O)[C@@H](NC(=O)c3ccnn3C(C)C)C3CCCCCC3)cc2O1 [Compound 218] | 0.222 µM |  |
| CC(C)n1nccc1C(=O)N[C@H](C(=O)Nc1ccc2c(c1)CCCC2C(=O)N1CC(F)(F)C1)C1CCCCCC1 (stereo partly shown) [Compound 219] | 0.276 µM |  |
| CC(C)CC1CC(C(=O)N2CC(F)(F)C2)c2ccc(NC(=O)[C@@H](NC(=O)c3ccnn3C(C)C)C3CCCCCC3)cc2O1 (stereo partly shown) [Compound 220] | 0.181 µM |  |
| CC(C)n1nccc1C(=O)N[C@H](C(=O)Nc1ccc2c(c1)OC1(CCCCC1)CC2C(=O)N1CC(F)(F)C1)C1CCCCCC1 (stereo partly shown) [Compound 221] | 0.116 µM |  |
| CC(C)n1nccc1C(=O)N[C@H](C(=O)Nc1ccc2c(c1)OC1(CCC1)CC2C(=O)N1CC(F)(F)C1)C1CCCCCC1 (stereo partly shown) [Compound 222] | 0.255 µM |  |
| CC(C)n1nccc1C(=O)N[C@H](C(=O)Nc1ccc2c(c1)OC1(CCCC1)CC2C(=O)N1CC(F)(F)C1)C1CCCCCC1 (stereo partly shown) [Compound 223] | 0.13 µM |  |
| CC(C)n1nccc1C(=O)N[C@H](C(=O)Nc1ccc2c(c1)OC1(CCC(C)(C)CC1)CC2C(=O)N1CC(F)(F)C1)C1CCCCCC1 (stereo partly shown) [Compound 224] | 0.202 µM |  |
| CC(C)n1nccc1C(=O)N[C@H](C(=O)Nc1ccc2c(c1)O[C@H](C1CC(F)(F)C1)C[C@H]2C(=O)N1CC(F)(F)C1)C1CCCCCC1 [Compound 226] |  | 0.0489 µM |
| CC(C)n1nccc1C(=O)N[C@H](C(=O)Nc1ccc2c(c1)O[C@@H](C1CC(F)(F)C1)C[C@H]2C(=O)N1CC(F)(F)C1)C1CCCCCC1 [Compound 228] |  | 0.0275 µM |
| CC(C)C1CC(C(=O)N2CC(F)(F)C2)c2cc(F)c(NC(=O)[C@@H](NC(=O)c3ccnn3C(C)C)C3CCCCCC3)cc2O1 (stereo partly shown) [Compound 230] | 0.242 µM |  |
| CC(C)n1nccc1C(=O)N[C@H](C(=O)Nc1ccc2c(c1)OC(C1CC(F)(F)C1)CC2C(=O)N1CC(C(F)(F)F)C1)C1CCCCCC1 (stereo partly shown) [Compound 231] | 0.116 µM |  |
